Tests used:
Acremonium charticola = experiment: Mycelial growth inhibition on agar (contact activity); assay type: cell-based; conditions: Würzeagar
Description: (§1) Die Prüfungen werden nach dem Verfahren zur Ermittlung der Kontaktaktivität durchgeführt. Man verwendet das in Wasser gelöste Kalium-N-(vinyloxyäthyl)dithiocarbamat, führt es in ein Nährmedium ein und vergießt auf Petri-Schalen. Nach 24 Stunden wird mit Pilzmyzelium nach einem Stichverfahren geimpft. Dann temperiert man die Schalen innerhalb von 5 Tagen bei einer zwischen 24 und 26 °C liegenden Temperatur und mißt den Durchmesser von Pilzkolonien, ermittelt den Prozentsatz der Hemmung des Myzelwachstums (S) ausgehend von Angaben am 5. Tag nach der Abbott-Formel [drawing 13] worin dc für den Durchmesser der Pilzkolonien, de für den Durchmesser von Pilzkolonien in der Schale stehen, wo ein die zu prüfenden Stoffe enthaltendes Medium vorhanden ist. Dieses Verfahren zur Ermittlung der mikrobiologischen Aktivität ist in anderen Beispielen verwendet.
(§2) Die Pilzkulturen werden auf Würzeagar gezüchtet. Ergebnisse, erhalten bei der Prüfung der fungiziden Aktivität gegen reine Kulturen von Mikroorganismen, welche Bioschädigungen hervorrufen, sind in der Tabelle 1 dargestellt.

Acremonium cowum = experiment: as above; assay type: cell-based; conditions: Würzeagar
Description: as §1, §2

[1] = system: Cladosporium cladosporioides; experiment: as above; assay type: cell-based; conditions: Würzeagar
Description: as §1, §2

Cladosporium resinae = experiment: as above; assay type: cell-based; conditions: Würzeagar
Description: as §1, §2

Geotrichum candidum Link = experiment: as above; assay type: cell-based; conditions: Würzeagar
Description: as §1, §2

Oidium Sp. = experiment: as above; assay type: cell-based; conditions: Würzeagar
Description: as §1, §2

Penicillium charlesii = experiment: as above; assay type: cell-based; conditions: Würzeagar
Description: as §1, §2

Penicillium chrysogenum = experiment: as above; assay type: cell-based; conditions: Würzeagar
Description: as §1, §2

Walrotiela subiculesa = experiment: as above; assay type: cell-based; conditions: Würzeagar
Description: as §1, §2

Fusarium moniliforme = experiment: as above; assay type: cell-based; conditions: Wirkstoffkonzentration 0,003 %; Würzeagar; Tabelle 7
Description: as §1
(§3) Tabelle 2 zeigt die Angaben für die fungizide Aktivität von Kalium-N-(vinyloxyäthyl)dithiocarbamat und bekannten wirksamen Fungiziden Poly arbazin und TMTD. Der zu prüfende Stoff wurde im Laufe der Versuche in Wasser aufgelöst, und die Kulturen wurden auf einem Kartoffel-Glukose-Nährmedium gezüchtet.

Fusarium sambucinum = experiment: as above; assay type: cell-based; conditions: Wirkstoffkonzentration 0,003 %; Würzeagar; Tabelle 7
Description: as §1, §3

Aspergillus niger = experiment: as above; assay type: cell-based; conditions: Wirkstoffkonzentration 0,003 %, Würzeagar
Paecilomyces varioti = experiment: as above; assay type: cell-based; conditions: Wirkstoffkonzentration 0,003 %; Würzeagar; Tabelle 8
Description: as §1

Penicillium funiculosum = experiment: as above; assay type: cell-based; conditions: Wirkstoffkonzentration 0,003 %; Würzeagar; Tabelle 8
Description: as §1

Stereum hirsutum = experiment: as above; assay type: cell-based; conditions: Wirkstoffkonzentration 0,003 %; Würzeagar; Tabelle 8
Description: as §1

Rhizoctonia solani = experiment: as above; assay type: cell-based; conditions: Wirkstoffkonzentration 0,003 %; Würzeagar; Tabelle 7
Description: as §1
Die fungizide Aktivität von Zink-bis-(N-vinyloxyäthyldithiocarbamat) gegen reine Kulturen von Pilzen Fusarium moniliforme, Fusarium sambucinum, Aspergillus niger, Rhizoctonia solani, Cladosporium resinae, Cladosporium cladosporioides, Acremonium cowum, Acremonium charticola, Penicillium chrysogenum, Penicillium charlesii Smith, Penicillium funiculosum, Geotrichum candidum Link, Walrotiela subiculesa, Oidium sp., Paecilomyces varioti, Stereum hirsutum wird gemäß Beispiel 8 untersucht.
(§4) Als Nährmedium dient Würzeagar.

Sphaeropsis malorum = experiment: as above; assay type: cell-based; conditions: Wirkstoffkonzentration 0,003 %; Würzeagar; Tabelle 7
Description: as §1, §4

Wurzelfäule von Gurken = experiment: Cucumber root rot test in treated non-sterile soil; assay type: in vivo
Excerpt: Man nimmt 100 g unsterilen Boden, enthaltend 1 Teil Humus, 1 Teil Rasenboden, 1 Teil Sand, gibt darin ein Präparat, das Zink-bis-(N-vinyloxyäthyldithiocarbamat) ausgehend von 200 kg/ha Wirkstoff enthält.
Das Präparat wird wie folgt hergestellt: Einer gesättigten Lösung des genannten Salzes in Azeton gibt man einige Tropfen Emulgiermittel (hydroxyäthylierte Alkylphenole) zu und verdünnt mit Wasser. Innerhalb von 7 bis 8 Tagen begießt man dann bodenhaltige Gefäße mit Wasser, bis der Boden in einen Zustand gebracht wird, der 60% der vollen Wasseraufnahmekapazität des Feldes beträgt. Nach dieser Zeit erfolgt die Aussaat von Gurkensamen, eingequollen im voraus in einer 0,1%igen KMn04-Lösung innerhalb von 2 Stunden. In jedes Gefäß werden je 10 Samen auf eine Tiefe von 1 bis 1,5 cm gesät. Nach 7 bis 9 Tagen berücksichtigt man die Keimungsfähigkeit von Samen, dann bestimmt man nach 3 Tagen den Befallumfang von Pflanzen durch Wurzelfäule, hervorgerufen durch einen Erregerkomplex. Die Versuche werden viermal wiederholt, als Vergleichsmuster dient Milon. Die Prüfergebnisse zeigt Tabelle 9.

Bacillus = experiment: Bactericidal activity on agar (concentration of complete growth inhibition); assay type: cell-based; conditions: % bezogen auf den Wirkstoff; am 5. Tag
Description: (§5) Geprüft wird die bakterizide Aktivität von Kalium-, Natrium-, Zink- und Kupfersalzen der N-(Vinyloxyäthyl)dithiocarbamidsäure gegen Bakterien der Gattungen Bacillus, Micrococcus, Pseudomonas, Escherichia und Xantomonas.
(§6) Man stellt wäßrige Stofflösungen verschiedener Konzentration her, die so berechnet werden, daß die Stoffkonzentration in der Petri-Schale bei der Gabe von 1 ml Lösung in das geschmolzene Nährmedium (45 bis 50 °C) zwischen 0,003 und 25 % (bezogen auf den Wirkstoff) schwankt. Nach 18 bis 24 Stunden bringt man auf die Oberfläche des Nährmediums 0,1 ml wäßrige Suspension eintägiger reiner Kulturen von Bakterien auf und verteilt sie gleichmäßig. In Kontrollschalen verteilt sich 0,1 ml Wasser über die Oberfläche des Nährmediums. Die Inkubation erfolgt bei 37 °C innerhalb von 5 Tagen. Die Wirksamkeit der Stoffe wird nach dem Auftreten des Bakterienwachstums auf der Oberfläche des Nährmediums eingeschätzt. Die Prüfergebnisse sind in der Tabelle 13 dargestellt.

Escherichia = experiment: as above; assay type: cell-based; conditions: % bezogen auf den Wirkstoff; am 5. Tag
Description: as §5, §6

Micrococcus = experiment: as above; assay type: cell-based; conditions: % bezogen auf den Wirkstoff; am 5. Tag
Description: as §5, §6

Pseudomonas = experiment: as above; assay type: cell-based; conditions: % bezogen auf den Wirkstoff; am 5. Tag
Description: as §5, §6

Larven von Fichtenböcken = experiment: Insecticidal activity, topical application to larvae; assay type: in vivo, Fichtenböcke; conditions: 10%ige Lösung
Excerpt: Die hohe insektizide Aktivität von Kalium-N-(vinyloxyathyl)dithiocarbamat und Zink-bis-(N-vinyloxyathyl- dithiocarbamat) wurde in Versuchen an Larven von Fichtenböcken nachgewiesen. Geprüft wurden die 10%igen wäßrigen (oder alkoholischen) Lösungen, welche auf die Kopfbrust von Larven aufgebracht wurden. In Versuchen standen je 20 Larven zur Verfügung. Die Versuche wurden dreimal wiederholt. Die Mortalität wurde nach 1, 24 und 48 Stunden ermittelt. Die insektizide Aktivität der erfindungsgemäßen Stoffe ist bedeutend höher als die von Chlorophos.
Die Prüfungen auf insektizide Aktivität werden an Larven von Fichtenböcken durchgeführt. Geprüft werden eine 10%ige wäßrige Lösung von Kalium-N-(vinyloxyäthyl)dithiocarbamat und eine 10%ige alkoholische Lösung von Zink-bis-N-(vinyloxyathyldithiocarbamat). In jedem Versuch stehen je 20 Larven zur Verfügung. Die Mortalität wird nach 1, 24 und 48 Stunden ermittelt. Die zu prüfenden Lösungen werden auf die Kopfbrust von Larven aufgebracht.

[2] = Acute toxicity (LD50) in mice; assay type: in vivo, weißen Mäusen; conditions: perorale Applikation an weißen Mäusen
[3] = Solubility in water (descriptive); assay type: physicochemical

Substance: Zink-bis-(N-vinyloxyäthyldithiocarbamat)
- Myzelhemmung in % (Acremonium charticola; Präparatkonzentration 0,0015 %): 50%
- Myzelhemmung in % (Acremonium charticola; Präparatkonzentration 0,003 %): 100%
- Myzelhemmung in % (Acremonium charticola; Präparatkonzentration 0,006 %): 100%
- Myzelhemmung in % (Acremonium charticola; Präparatkonzentration 0,012 %): 100%
- Myzelhemmung in % (Acremonium cowum; Präparatkonzentration 0,0015 %): 40%
- Myzelhemmung in % (Acremonium cowum; Präparatkonzentration 0,003 %): 100%
- Myzelhemmung in % (Acremonium cowum; Präparatkonzentration 0,006 %): 100%
- Myzelhemmung in % (Acremonium cowum; Präparatkonzentration 0,012 %): 100%
- Myzelhemmung in % ([1]; Präparatkonzentration 0,0015 %): 100%
- Myzelhemmung in % ([1]; Präparatkonzentration 0,003 %): 100%
- Myzelhemmung in % ([1]; Präparatkonzentration 0,006 %): 100%
- Myzelhemmung in % ([1]; Präparatkonzentration 0,012 %): 100%
- Myzelhemmung in % (Cladosporium resinae; Präparatkonzentration 0,0015 %): 37,5%
- Myzelhemmung in % (Cladosporium resinae; Präparatkonzentration 0,003 %): 100%
- Myzelhemmung in % (Cladosporium resinae; Präparatkonzentration 0,006 %): 100%
- Myzelhemmung in % (Cladosporium resinae; Präparatkonzentration 0,012 %): 100%
- Myzelhemmung in % (Geotrichum candidum Link; Präparatkonzentration 0,0015 %): 29%
- Myzelhemmung in % (Geotrichum candidum Link; Präparatkonzentration 0,003 %): 100%
- Myzelhemmung in % (Geotrichum candidum Link; Präparatkonzentration 0,006 %): 100%
- Myzelhemmung in % (Geotrichum candidum Link; Präparatkonzentration 0,012 %): 100%
- Myzelhemmung in % (Oidium Sp.; Präparatkonzentration 0,0015 %): 80%
- Myzelhemmung in % (Oidium Sp.; Präparatkonzentration 0,003 %): 100%
- Myzelhemmung in % (Oidium Sp.; Präparatkonzentration 0,006 %): 100%
- Myzelhemmung in % (Oidium Sp.; Präparatkonzentration 0,012 %): 100%
- Myzelhemmung in % (Penicillium charlesii; Präparatkonzentration 0,0015 %): 90%
- Myzelhemmung in % (Penicillium charlesii; Präparatkonzentration 0,003 %): 100%
- Myzelhemmung in % (Penicillium charlesii; Präparatkonzentration 0,006 %): 100%
- Myzelhemmung in % (Penicillium charlesii; Präparatkonzentration 0,012 %): 100%
- Myzelhemmung in % (Penicillium chrysogenum; Präparatkonzentration 0,0015 %): 10%
- Myzelhemmung in % (Penicillium chrysogenum; Präparatkonzentration 0,003 %): 40%
- Myzelhemmung in % (Penicillium chrysogenum; Präparatkonzentration 0,006 %): 80%
- Myzelhemmung in % (Penicillium chrysogenum; Präparatkonzentration 0,012 %): 100%
- Myzelhemmung in % (Walrotiela subiculesa; Präparatkonzentration 0,0015 %): 52%
- Myzelhemmung in % (Walrotiela subiculesa; Präparatkonzentration 0,003 %): 100%
- Myzelhemmung in % (Walrotiela subiculesa; Präparatkonzentration 0,006 %): 100%
- Myzelhemmung in % (Walrotiela subiculesa; Präparatkonzentration 0,012 %): 100%
- Myzelhemmung in % (Fusarium moniliforme): 100%
- Myzelhemmung in % (Fusarium sambucinum): 100%
- Myzelhemmung in % (Aspergillus niger; Tabelle 7): 90%
- Myzelhemmung in % (Aspergillus niger; Tabelle 8): 90%
- Myzelhemmung in % (Paecilomyces varioti): 100%
- Myzelhemmung in % (Penicillium funiculosum): 100%
- Myzelhemmung in % (Stereum hirsutum): 100%
- Myzelhemmung in % (Rhizoctonia solani): 100%
- Myzelhemmung in % (Sphaeropsis malorum): 100%
- Entwicklung von Wurzelschimmel vermindert sich gegenüber Kontrolle (Wurzelfäule von Gurken; Aufzucht von Gurken): Ilfache
- Samenkeimung steigt gegenüber Kontrolle (Wurzelfäule von Gurken; Aufzucht von Gurken): 11%
- Samenkeimung steigt gegenüber Milon (Vergleichmuster) (Wurzelfäule von Gurken; Aufzucht von Gurken): 15%
- Keimungshäufigkeit in % (Wurzelfäule von Gurken; Gurkensamen, 200 kg/ha Wirkstoff): 85,1%
- Entwicklung von Krankheiten in % (Wurzelfäule von Gurken; Wurzelfäule von Gurken, 200 kg/ha Wirkstoff): 4,0%
- Konzentrationen, welche das Bakterienwachstum völlig (100 %) hemmen (Bacillus): 0,05%
- Konzentrationen, welche das Bakterienwachstum völlig (100 %) hemmen (Escherichia): 0,05%
- Konzentrationen, welche das Bakterienwachstum völlig (100 %) hemmen (Micrococcus): 0,05%
- Konzentrationen, welche das Bakterienwachstum völlig (100 %) hemmen (Pseudomonas): 0,05%
- Mortalität von Larven der Fichtenböcke (Larven von Fichtenböcken; Wirkungsdauer 1 Stunde): 10%
- Mortalität von Larven der Fichtenböcke (Larven von Fichtenböcken; Wirkungsdauer 24 Stunden): 88%
- Mortalität von Larven der Fichtenböcke (Larven von Fichtenböcken; Wirkungsdauer 48 Stunden): 100%
- LD50 [2]: 1120 ± 266 mg/kg
- Löslichkeit in Wasser [3]: wasserunlöslich
